The values below come from patent US20250154172A1, “PRMT5 INHIBITORS AND USES THEREOF” (Gilead Sciences, Inc., priority 2023, published 2025).

The experiment concerns HCT116 MTAP-deleted cell lines. Put plainly: Cell viability assay for HCT116 isogenic pair (CellTitre-Glo, 7 days). Format: cell-based. The note with it: Homo sapiens, HCT-116, 168 h, 7 days of treatment, cell line not given. As for the experimental part:
Control compounds were analyzed in parallel each time for quality control.
In Brief, on Day −1, a serial dilution of stock compounds in DMSO was performed using BioMek liquid handlers and dispensed using Echo acoustic dispenser into 384 well plates. Both tool compounds and sample compounds were spotted in the same plate for a dose response of PRMT5 inhibitors. Compound plates were stored as frozen until the cells were ready for seeding.
On Day 0, 100 HCT WT or HCT116 MTAP-deleted cells were seeded in compound-containing 384 well plates (50 μl per well) in RPMI 1640 media supplemented with 10% heat inactivated fetal bovine serum, Glutamax and penicillin streptomycin using EL460 liquid dispenser 5 μl cassette (BioTek, part no. 7170011). After equilibrating the plate in room temperature, the cells were incubated for 7 days inside the sealed incubator set at 37° C. with 90% humidity and 5% CO2.
On Day 7, the viability of cells was measured using a CTG assay kit (CellTitre-Glo; Promega cat no. G7573). Shortly, 40 μl per well of luminescent cell viability assay reagent were dispensed using EL460 liquid dispenser 5 μl cassette. CTG luminescence signal was measured using an EnVision plate reader (PerkinElmer) in accordance with manufacturer's instruction. The CCso values for each compound after 7 days of treatment were calculated using 4 parameter non-linear logistical curve fit.
For the cell viability assay ie CC50 shown in nM in Table 3.
In general, CC50 refers to the concentration that lowers cell viability or growth by half. Low readings indicate harm at low concentration, high ones better tolerance by the cells. Molecule `Nc1nc2cnc(C(=O)N3CCC[C@@H]4Oc5cc(C(F)(F)F)ccc5[C@@H]43)cc2c2c1COC2` (racemic) [Example Ca-1, (Rac)-(4-amino-1,3-dihydrofuro[3,4-c][1,7]naphthyridin-8-yl)((4aS,9bS)-7-(trifluoromethyl)-3,4,4a,9b-tetrahydrobenzofuro[3,2-b]pyridin-1(2H)-yl)methanone] yielded a CC50 of 26 nM. As for `COc1ccc2c(c1)CO[C@H]1CCCN(C(=O)c3ccc4nc(N)c5cnn(C)c5c4c3)[C@@H]21` (racemic) [Example Ca-8, Rac-(4-amino-1-methyl-1H-pyrazolo[4,3-c]quinolin-8-yl)((4aS,10bS)-8-methoxy-2,3,4,4a,6,10b-hexahydro-1H-isochromeno[4,3-b]pyridin-1-yl)methanone], the figure is 23 nM.

In the case of `Cn1ncc2c(N)nc3cc(F)c(C(=O)N4CCO[C@@H]5Cc6cc(C(F)(F)F)ccc6[C@@H]54)cc3c21` (racemic) [Example Ca-10, (Rac)-(4-amino-7-fluoro-1-methyl-1H-pyrazolo[4,3-c]quinolin-8-yl)(7-(trifluoromethyl)-2,3,9,9a-tetrahydroindeno[2,1-b][1,4]oxazin-4(4aH)-yl)methanone], it took 10 nM to reach half-maximal cytotoxicity (CC50). Regarding `Cn1ncc2c(N)nc3ccc(C(=O)N4CCO[C@@H]5Cc6cc(C(F)(F)F)ccc6[C@@H]54)cc3c21` (racemic) [Example Ca-11, (Rac)-(4-amino-1-methyl-1H-pyrazolo[4,3-c]quinolin-8-yl)(7-(trifluoromethyl)-2,3,9,9a-tetrahydroindeno[2,1-b][1,4]oxazin-4(4aH)-yl)methanone], the CC50 amounted to 65 nM.

`Cn1ncc2c(N)nc3ccc(C(=O)N4CCO[C@@H]5Cc6cc(Br)ccc6[C@@H]54)cc3c21` (racemic) [Example Ca-12, (Rac)-(4-amino-1-methyl-1H-pyrazolo[4,3-c]quinolin-8-yl)(7-bromo-2,3,9,9a-tetrahydroindeno[2,1-b][1,4]oxazin-4(4aH)-yl)methanone]: the midpoint of cytotoxicity, the CC50, lay at 53 nM. As for `Cn1ncc2c(N)nc3cnc(C(=O)N4CCC5CC4c4ccc(C(F)(F)F)cc45)cc3c21` (racemic) [Example Ca-14, (Rac)-(4-amino-1-methyl-1H-pyrazolo[4,3-c][1,7]naphthyridin-8-yl)((1R,5S)-7-(trifluoromethyl)-1,3,4,5-tetrahydro-2H-1,5-methanobenzo[c]azepin-2-yl)methanone], the figure is 16 nM; as for `Cn1ncc2c(N)nc3cnc(C(=O)N4CCC[C@@H]5Oc6cc(OC(F)F)c(F)cc6[C@@H]54)cc3c21` (racemic) [Example Ca-21, (Rac)-(4-amino-1-methyl-11H-pyrazolo[4,3-c][1,7]naphthyridin-8-yl)(7-(difluoromethoxy)-8-fluoro-3,4,4a,9b-tetrahydrobenzofuro[3,2-b]pyridin-1(2H)-yl)methanone], 15 nM; as for `Nc1nc2cnc(C(=O)N3CCC[C@@H]4Cc5cc(C(F)(F)F)ccc5[C@@H]43)cc2c2c1COC2` (racemic) [Example Ca-23, (Rac)-(4-amino-1,3-dihydrofuro[3,4-c][1,7]naphthyridin-8-yl)((4aR,9bR)-7-(trifluoromethyl)-2,3,4,4a,5,9b-hexahydro-1H-indeno[1,2-b]pyridin-1-yl)methanone], 134 nM. Turning to `Cn1ncc2c(N)nc3cnc(C(=O)N4CCC[C@@H]5Cc6cc(C(F)(F)F)ccc6[C@@H]54)cc3c21` (racemic) [Example Ca-24, (Rac)-(4-amino-1-methyl-1H-pyrazolo[4,3-c][1,7]naphthyridin-8-yl)((4aR,9bR)-7-(trifluoromethyl)-2,3,4,4a,5,9b-hexahydro-1H-indeno[1,2-b]pyridin-1-yl)methanone], it took 42 nM to reach half-maximal cytotoxicity (CC50). As for `Nc1nc2cnc(C(=O)N3CCC[C@@H]4Oc5nc(C(F)(F)F)ccc5[C@@H]43)cc2c2c1COC2` (racemic) [Example Ca-32, Rac-(4-amino-1,3-dihydrofuro[3,4-c][1,7]naphthyridin-8-yl)((4aS,9bS)-7-(trifluoromethyl)-3,4,4a,9b-tetrahydrofuro[2,3-b:4,5-b′]dipyridin-1(2H)-yl)methanone], the figure is 54 nM; as for `C[C@@H]1C[C@@H]2CCc3cc(C(F)(F)F)ccc3[C@@H]2N(C(=O)c2cc3c(cn2)nc(N)c2cnn(C)c23)C1` (racemic) [Example Ca-39, (Rac)-(4-amino-1-methyl-1H-pyrazolo[4,3-c][1,7]naphthyridin-8-yl)((3R,4aS,10bR)-3-methyl-8-(trifluoromethyl)-3,4,4a,5,6,10b-hexahydrobenzo[h]quinolin-1(2H)-yl)methanone], 79 nM.

For the molecule `C[C@@H]1C[C@@H]2CCc3cc(C(F)(F)F)ccc3[C@@H]2N(C(=O)c2cc3c4c(c(N)nc3cn2)COC4)C1` (racemic) [Example Ca-40, (Rac)-(4-amino-1,3-dihydrofuro[3,4-c][1,7]naphthyridin-8-yl)((3R,4aS,10bR)-3-methyl-8-(trifluoromethyl)-3,4,4a,5,6,10b-hexahydrobenzo[h]quinolin-1(2H)-yl)methanone], half-maximal cytotoxicity (CC50) was put at 179 nM. As for `C[C@@H]1CC[C@@H]2Oc3cc(OC(F)(F)F)ccc3[C@@H]2N1C(=O)c1cc2c(cn1)nc(N)c1cnn(C)c12` (racemic) [Example Ca-41, (Rac)-(4-amino-1-methyl-1H-pyrazolo[4,3-c][1,7]naphthyridin-8-yl)((2R,4aS,9bS)-2-methyl-7-(trifluoromethoxy)-3,4,4a,9b-tetrahydrobenzofuro[3,2-b]pyridin-1(2H)-yl)methanone], the figure is 30 nM. In the case of `Cn1ncc2c(N)nc3ccc(C(=O)N4CC[C@@H]5Oc6cc(C(F)(F)F)ccc6[C@@H]54)cc3c21` (racemic) [Example Ca-55, Rac-(4-amino-1-methyl-1H-pyrazolo[4,3-c]quinolin-8-yl)((3aS,8bS)-6-(trifluoromethyl)-2,3,3a,8b-tetrahydro-1H-benzofuro[3,2-b]pyrrol-1-yl)methanone] it was 106 nM; in that of `CN(C(=O)c1cc2c(cn1)nc(N)c1cnn(C)c12)[C@H]1c2ccc(C(F)(F)F)cc2[C@@H]2C[C@@H]21` (single isomer, unassigned) [Example Ca-25], 43 nM; in that of `CN(C(=O)c1cc2c(cn1)nc(N)c1cnn(C)c12)[C@H]1c2ccc(C(F)(F)F)cc2[C@H]2C[C@H]21` (single isomer, unassigned) [Example Ca-26], 25 nM. In the case of `CN(C(=O)c1cc2c(cn1)nc(N)c1cnn(C)c12)[C@@H]1c2ccc(C(F)(F)F)cc2[C@H]2C[C@H]21` (single isomer, unassigned) [Example Ca-27] it was 88 nM; in that of `CN(C(=O)c1cc2c(cn1)nc(N)c1cnn(C)c12)[C@@H]1c2ccc(C(F)(F)F)cc2[C@@H]2C[C@H]12` (single isomer, unassigned) [Example Ca-28], 1290 nM. `C[C@@H]1CN(C(=O)c2cc3c(cn2)nc(N)c2cnn(C)c23)[C@H]2c3ccc(Br)c(F)c3C[C@H]2O1` (single isomer, unassigned) [Example Ca-30] had a CC50 of 75 nM. In the case of `C[C@H]1CN(C(=O)c2cc3c(cn2)nc(N)c2cnn(C)c23)[C@H]2c3ccc(Br)c(F)c3C[C@H]2O1` (single isomer, unassigned) [Example Ca-31] it was 32 nM; in that of `C[C@@H]1CN(C(=O)c2cc3c(cn2)nc(N)c2cnn(C)c23)[C@H]2c3ccc(Cl)cc3C[C@H]2O1` (single isomer, unassigned) [Example Ca-37], 22 nM; in that of `C[C@H]1CN(C(=O)c2cc3c(cn2)nc(N)c2cnn(C)c23)[C@H]2c3ccc(Cl)cc3C[C@H]2O1` (single isomer, unassigned) [Example Ca-38], 129 nM. In the case of `Cn1ncc2c(N)nc3cc(Cl)c(C(=O)N4CCC[C@H]5Oc6cc(C(F)(F)F)ccc6[C@H]54)cc3c21` (stereo in doubt) [Example Ca-3, (4-amino-7-chloro-1-methyl-1H-pyrazolo[4,3-c]quinolin-8-yl)((4aR,9bR)-7-(trifluoromethyl)-3,4,4a,9b-tetrahydrobenzofuro[3,2-b]pyridin-1(2H)-yl)methanone] it was 5 nM.

`Cn1ncc2c(N)nc3cnc(C(=O)N4CC[C@H]5C[C@@H]4c4ccc(C(F)(F)F)nc4O5)cc3c21` [Example Ca-2, (4-amino-1-methyl-1H-pyrazolo[4,3-c][1,7]naphthyridin-8-yl)((2S,6R)-9-(trifluoromethyl)-3,4-dihydro-2H-2,6-methanopyrido[2,3-b][1,5]oxazocin-5(6H)-yl)methanone] had a CC50 of 8 nM. As for `Cn1ncc2c(N)nc3cc(F)c(C(=O)N4CCC[C@@H]5Oc6cc(C(F)(F)F)ccc6[C@@H]54)cc3c21` [Example Ca-4, (4-amino-7-fluoro-1-methyl-1H-pyrazolo[4,3-c]quinolin-8-yl)((4aS,9bS)-7-(trifluoromethyl)-3,4,4a,9b-tetrahydrobenzofuro[3,2-b]pyridin-1(2H)-yl)methanone], the figure is 3 nM; as for `Cn1ncc2c(N)nc3ccc(C(=O)N4CCC[C@@H]5Oc6cc(C(F)(F)F)ccc6[C@@H]54)cc3c21` [Example Ca-5, (4-amino-1-methyl-1H-pyrazolo[4,3-c]quinolin-8-yl)((4aS,9bS)-7-(trifluoromethyl)-3,4,4a,9b-tetrahydrobenzofuro[3,2-b]pyridin-1(2H)-yl)methanone], 8 nM.
